34 compounds from patent US20100173888A1 (Pfizer Inc, priority 2008, published 2010) can be followed below.

In general, pIC50 refers to −log10 of the IC50, conventionally taken in molar units.

pIC50: −log10 of the molar value. Where a name gives a salt, the structure may show the parent alone.

The target in this experiment is human recombinant H-PGDS (Homo sapiens, UniProt O60760). As to the kind of experiment: Fluorescence intensity h-PGDS TBA enzyme assay (PGH2 depletion, MDA/TBA fluorescence). Format: biochemical. Particulars: 1:175,000 human recombinant H-PGDS, 42 second reaction, 3-fold serial dilutions, highest concentration typically 1 μM. The protocol: Fluoresecence Intensity h-PGDSTBA Enzyme Assay
Sequence of human recombinant H-PGDS (O60760 whole entry): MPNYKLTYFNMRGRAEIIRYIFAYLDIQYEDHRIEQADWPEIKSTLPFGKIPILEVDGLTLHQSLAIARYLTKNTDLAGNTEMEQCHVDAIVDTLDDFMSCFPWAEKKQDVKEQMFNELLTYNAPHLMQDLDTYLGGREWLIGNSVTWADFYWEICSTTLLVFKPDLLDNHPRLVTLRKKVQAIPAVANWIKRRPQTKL
Prostaglandin D Synthase (PGDS) converts the substrate prostaglandin H2 (PGH2) to prostaglandin D2. The depletion of PGH2 was measured via an Fe(II) reduction of the remaining PGH2 to malondialdehyde (MDA) and 12-HHT. The enzyme assay is based on the quantitative formation of a fluorescent complex from the non-fluorescent compounds MDA and 2-thiobarbituric acid (TBA), substantially as described in U.S. patent application publication US-2004/152148 by Lombardt.
The enzyme assay (31 μls) contained 100 mM Tris base pH 8.0, 100 μM MgCl2, 0.1 mg/ml IgG Rabbit serum, 5.0 μM PGH2 (Cayman; ethanol solution, #17020), 2.5 mM L-Glutathione (Sigma; reduced form. #G4251), 1:175,000 human recombinant H-PGDS (from 1 mg/ml), 0.5% DMSO and inhibitor (varying concentration). Three μls of diluted inhibitor (dissolved in DMSO) was plated into a 384-well assay plate followed by a 25 μl addition of an enzyme solution containing h-PGDS, Tris, MgCl2, IgG and L-Glutathione. After preincubation of inhibitor and enzyme solution for 10 minutes at room temperature, the reaction was initiated with a 3 μl addition of substrate solution in 10 mM HCl. The reaction was terminated after 42 second by the addition (3 μl) of stop buffer containing FeCl2 and citric acid. After addition of 45.5 μls of TBA plates were heated for one hour in a 70° C. oven. Plates were cooled at room temperature overnight and read on a plate reader the next day with excitation @ 530 nm and emission @ 565 nm.
IC50' s of inhibitors were calculated with a 4-parameter fit using 11 inhibitor concentrations in duplicate with 3-fold serial dilutions. Controls on each plate included no inhibitor (zero % effect) and an inhibitor 10-fold in excess of its' IC50 (100% effect). The highest inhibitor concentration tested was typically 1 μM.
In the case of `NC(=O)[C@@H]1CC[C@H](NC(=O)c2ccc(-c3cccc(F)c3)nc2)C1` [Example 175, N-[(1S,3R)-3-Carbamoylcyclopentyl]-6-(3-fluorophenyl)nicotinamide], the pIC50 is 7.69. Consider `CN1CCCCC1C(=O)N[C@H]1CC[C@@H](NC(=O)c2ccc(-c3cccc(F)c3)nc2)CC1` (relative stereo) [Example 217, 6-(3-fluorophenyl)-N-(cis-4-{[(1-methylpiperidin-2-yl)carbonyl]amino}cyclohexyl)nicotinamide], for which the pIC50 was 7.17. `CN(C(=O)[C@@H]1CCC[C@H](NC(=O)c2ccc(-c3cccc(F)c3)nc2)C1)C1CCNCC1` (stereo in doubt) [Example 192, 6-(3-Fluorophenyl)-N-{(1S,3R)-3-[methyl(piperidin-4-yl)carbamoyl]cyclohexyl}nicotinamide]: the pIC50 was 7.82. The same measure for `CC(C)(O)CNC(=O)[C@@H]1CC[C@H](NC(=O)c2ccc(-c3cccc(F)c3)nc2)C1` [Example 171, 6-(3-Fluorophenyl)-N-{(1S,3R)-3-[(2-hydroxy-2-methylpropyl)carbamoyl]cyclopentyl}nicotinamide]: 8.20; for `O=C(CO)N[C@@H]1CCC[C@H](NC(=O)c2ccc(-c3cccc(F)c3)nc2)C1` (relative stereo) [Example 202]: 7.77. In the case of `CCN1CCN(C(=O)[C@@]2(C)CCC[C@@H](NC(=O)c3ccc(-c4cccc(F)c4)nc3)C2)CC1` (relative stereo) [Example 233, N-{(1R*,3S*)-3-[(4-Ethylpiperazin-1-yl)carbonyl]-3-methylcyclohexyl}-6-(3-fluorophenyl)nicotinamide], the pIC50 was 8.39. For the compound `CC(O)C(=O)N[C@H]1CC[C@@H](NC(=O)c2ccc(-c3cccc(F)c3)nc2)CC1` (relative stereo) [Example 222, 6-(3-fluorophenyl)-N-[cis-4-(lactoylamino)cyclohexyl]nicotinamide], the pIC50 is 7.29. Regarding `O=CN[C@H]1CC[C@H](NC(=O)c2ccc(-c3cccc(F)c3)nc2)CC1` [Example 113O, 6-(3-fluorophenyl)-N-(trans-4-formamidocyclohexyl)nicotinamide], the pIC50 is 8.14. Regarding `CNC(=O)N(C)[C@H]1CC[C@H](NC(=O)c2ccc(-c3cccc(F)c3)nc2)CC1` [Example 272, 6-(3-Fluorophenyl)-N-{trans-4-[methyl(methylcarbamoyl)amino]cyclohexyl}nicotinamide], the pIC50 was 7.96.

As to `N#CC1(C(=O)N2CCOCC2)CCCC(NC(=O)c2ccc(-c3cccc(F)c3)nc2)C1` (stereo not shown) [Example 265, N-[3-Cyano-3-(morpholin-4-ylcarbonyl)cyclohexyl]-6-(3-fluorophenyl)nicotinamide], the pIC50 is 8.55. On to `O=C(N[C@H]1CCCC[C@@H]1O)c1ccc(-c2cccc(F)c2)nc1` [Example 25], for which the pIC50 is 7.65.

As to `O=C(NC1CCC(O)(C(F)(F)F)CC1)c1ccc(-c2cccc(F)c2)nc1` (mixture of isomers) [Example 151, 6-(3-Fluorophenyl)-N-(trans 4-hydroxy-4-trifluoromethylcyclohexyl)nicotinamide and 6-(3-Fluorophenyl)-N-(cis 4-hydroxy-4-trifluoromethylcyclohexyl)nicotinamide], the pIC50 is 7.99. In the case of `CN(C)C(=O)[C@@]1(C)CCC[C@@H](NC(=O)c2ccc(-c3cccc(F)c3)nc2)C1` (relative stereo) [Example 237, N-[(1R*,3S*)-3-(Dimethylcarbamoyl)-3-methylcyclohexyl]-6-(3-fluorophenyl)nicotinamide], the pIC50 is 8.29. With `CC(C)(O)[C@@H]1CC[C@H](NC(=O)c2ccc(-c3cccc(F)c3)nc2)C1` [Example 162, 6-(3-fluorophenyl)-N-[(1S,3R)-3-(1-hydroxy-1-methylethyl)cyclopentyl]nicotinamide], the pIC50 is 7.64. As to `O=C(N[C@H]1CC[C@H](CO)CC1)c1cnc(-c2cccc(F)c2)c(Cl)c1` [Example 114, 5-Chloro-6-(3-fluorophenyl)-N-[trans-4-(hydroxymethyl)cyclohexyl]nicotinamide], the pIC50 is 8.36. Take `COC1(CO)CCC(NC(=O)c2ccc(-c3cccc(F)c3)nc2)CC1` (stereo not shown) [Example 225, 6-(3-Fluorophenyl)-N-[4-(hydroxymethyl)-4-methoxycyclohexyl]nicotinamide]: the pIC50 is 8.28. The same measure for `CN(C)C(=O)N[C@H]1CC[C@@H](NC(=O)c2ccc(-c3cccc(F)c3)nc2)CC1` [Example 234, N-{cis-4-[(Dimethylcarbamoyl)amino]cyclohexyl}-6-(3-fluorophenyl)nicotinamide]: 7.96; for `COCC(=O)N[C@H]1CC[C@H](NC(=O)c2ccc(-c3cccc(F)c3)nc2)CC1` [Example 113N, 6-(3-fluorophenyl)-N-{trans-4-[(methoxyacetyl)amino]cyclohexyl}nicotinamide]: 7.94; for `CN1CCN(C(=O)C2(C#N)CCCC(NC(=O)c3ccc(-c4cccc(F)c4)nc3)C2)CC1` (stereo not shown) [Example 263, N-{3-Cyano-3-[(4-methylpiperazin-1-yl)carbonyl]cyclohexyl}-6-(3-fluorophenyl)nicotinamide]: 8.30.

For `O=C(N[C@H]1CCC[C@@H](CN2CC(O)C2)C1)c1ccc(-c2cccc(F)c2)nc1` (stereo in doubt) [Example 256, 6-(3-Fluorophenyl)-N-{(1S,3R)-3-[(3-hydroxyazetidin-1-yl)methyl]cyclohexyl}nicotinamide], the pIC50 was 7.36. The same measure for `O=C(NC1CCCc2ccccc21)c1ccc(-c2cc(F)cc(F)c2)nc1` (stereo not shown) [Example 124, 6-(3,5-Difluorophenyl)-N-(1,2,3,4-tetrahydronaphthalen-1-yl)nicotinamide]: 7.64; for `O=C(NC1CCCCC1)c1ccc(-c2ccccc2)nc1` [Example 21, N-Cyclohexyl-6-phenylnicotinamide]: 8.78. As for `CN1CCN(CC(=O)N[C@H]2CCC[C@H](NC(=O)c3ccc(-c4cccc(F)c4)nc3)C2)CC1` (relative stereo) [Example 247], the pIC50 is 7.24. For the compound `CNC(=O)N[C@H]1CC[C@H](NC(=O)c2ccc(-c3cccc(F)c3)nc2)CC1` [Example 270], the pIC50 is 8.04.

In the case of `CC(C)(O)C(=O)N[C@H]1CC[C@@H](NC(=O)c2ccc(-c3cccc(F)c3)nc2)CC1` [Example 216, 6-(3-Fluorophenyl)-N-{cis-4-[(2-hydroxy-2-methylpropanoyl)amino]cyclohexyl}nicotinamide], the negative-log IC50 (pIC50) is 7.50. For `CN1CCCC(C(=O)N[C@H]2CC[C@@H](NC(=O)c3ccc(-c4cccc(F)c4)nc3)CC2)C1` (relative stereo) [Example 219, 6-(3-fluorophenyl)-N-(cis-4-{[(1-methylpiperidin-3-yl)carbonyl]amino}cyclohexyl)nicotinamide], the pIC50 is 7.49.

Regarding `CN1CCN(CC(=O)N[C@@H]2CCC[C@H](NC(=O)c3ccc(-c4cccc(F)c4)nc3)C2)CC1` (relative stereo) [Example 204], the pIC50 was 7.16. The same measure for `CC(C)(O)C(=O)N[C@H]1CC[C@H](NC(=O)c2ccc(-c3cccc(F)c3)nc2)CC1` [Example 143, 6-(3-Fluorophenyl)-N-{trans-4-[(2-hydroxy-2-methylpropanoyl)amino]cyclohexyl}nicotinamide]: 8.14; for `N[C@@H]1CCC[C@H](NC(=O)c2ccc(-c3cccc(F)c3)nc2)C1` (relative stereo) [Example 200, N-[cis-3-Aminocyclohexyl]-6-(3-fluorophenyl)nicotinamide]: 6.72; for `CS(=O)(=O)NC[C@H]1CC[C@H](NC(=O)c2ccc(-c3cccc(F)c3)nc2)CC1` [Example 150, 6-(3-Fluorophenyl)-N-[trans 4(methanesulfonylaminomethyl)cyclohexyl]nicotinamide]: 8.05. Turning to `O=C(N[C@@H]1CCC[C@H](C(=O)NC2CCNCC2)C1)c1ccc(-c2cccc(F)c2)nc1` (relative stereo) [Example 191, 6-(3-Fluorophenyl)-N-cis-3-(piperidin-4-ylcarbamoyl)cyclohexyl]nicotinamide hydrochloride], the pIC50 was 7.53.

For `NCC(=O)N[C@H]1CC[C@@H](NC(=O)c2ccc(-c3cccc(F)c3)nc2)CC1` [Example 224, 6-(3-fluorophenyl)-N-[cis-4-(glycylamino)cyclohexyl]nicotinamide], the pIC50 was 7.13. Turning to `O=C(N[C@@H]1CC[C@H](C(=O)N2CC[C@H](F)C2)C1)c1ccc(-c2cccc(F)c2)nc1` [Example 181, 6-(3-Fluorophenyl)-N-[(1R,3S)-3-{[(3S)-3-fluoropyrrolidin-1-yl]carbonyl}cyclopentyl]nicotinamide], the pIC50 was 8.24. To `O=C(N[C@H]1CC[C@H](N2CCCC2)CC1)c1ccc(-c2cccc(F)c2)nc1` [Example 213, 6-(3-Fluorophenyl)-N-(trans-4-pyrrolidin-1-ylcyclohexyl)nicotinamide] belongs 7.44.
